The experiment has as its system T1, GABAA receptor (GABAAR), native, cultured rat hippocampal neurons.
T1 construct: gene Gabra1; native receptors of unresolved subunit composition in primary cultured hippocampal neurons (12-16 DIV for firing recordings)
As to the kind of experiment: whole-cell patch clamp, peak current. The class given is cell-based. The settings on record: direct activation without GABA; holding potential −50 mV; pH 7.3. For orientation: Patch clamp records ionic current or voltage across a cell membrane.

Data on 1 compound can be found in article PMC2560999, “A-Type GABA Receptor as a Central Target of TRPM8 Agonist Menthol” (PLoS ONE, 2008).

As for `CC(C)[C@@H]1CC[C@@H](C)C[C@H]1O` [menthol], the EC50 (commonly the concentration giving half of the maximal effect) was determined as 490 µM.
